# Data reported in patent publication US10174096B2, “Feline bitter taste receptors and methods” (Applied Food Biotechnology, Inc., priority 2013, dated 2019).
# Key:
# Type in all cases: cell-based, feline
# fTAS2R38 [1] = experiment: Fluo-4AM calcium assay, stable G[alpha]16-gustducin 44/TAS2R38 cell line
# Source text: Fluo-4AM is a fluorescent indicator of intracellular calcium dynamics (change in concentration) and allows monitoring changes in the calcium concentration, particularly an increase in response to receptor activation occurring after agonist exposure.
# fTAS2R38 [2] = experiment: Fluo-4AM calcium assay, cells transiently expressing fTAS2R38
# Procedure: Cell lines that transiently express a desired TAS2R disclosed herein were generated by transfecting the appropriate expression vector, e.g., pcDNA3.1D-FLAGV5His-TAS2R38, constructed as described above in Ex. 2A into cells of a eukaryotic cell line (Life Technologies, Cat# R700-07).
# (§1) On day 0, 60,000 cells per well were plated on poly lysine coated, black 96 well plates with clear bottoms (Costar). The following day the cells were transfected with 150 ng TAS2R38 expression vector, e.g., pcDNA3.1D-FLAGV5His (Invitrogen) along with 45 ng of Ga16 chimera containing the last 44 amino acids of rat gustducin (Gα16gust44) with 0.5 ul Lipofectamine 2000 (Invitrogen) per well. Cells were then incubated 22-44 hours at 37° C. 5% CO2.
# The expression of fTAS2R38 was evaluated by testing for the presence of a functional response to a known hTAS2R38 ligand (e.g., PTC), determined via automated calcium imaging using a Fluo-4AM (Life Technologies Corporation) Calcium Assay. Fluo-4AM is a fluorescent indicator of intracellular calcium dynamics (change in concentration) and allows monitoring changes in the calcium concentration, particularly an increase in response to receptor activation occurring after agonist exposure.
# (§2) Testing for a functional response of fTAS2R38 to the known hTAS2R38 ligands, PTC and PROP, and of fTAS2R43 to the known hTAS2R43 ligands, aloin, denatonium and saccharine), was determined via automated calcium imaging using the Fluo-4AM (Life Technologies Corporation) Calcium Assay.
# fTAS2R43 = experiment: Fluo-4AM calcium assay, cells transiently expressing fTAS2R43
# Procedure: as §1
# Generation of cell lines transiently expressing the other fTAS2Rs disclosed herein was analogous.
# as §2
compound,measurement,setting,value
"CCCc1cc(=O)[nH]c(=S)[nH]1 [PROP, 6-n-propylthiouracil]",stimulation of stable fTAS2R38 cell line,fTAS2R38 [1]; 30 μm PROP,not stimulated
same,stimulation of fTAS2R38,"fTAS2R38 [2]; 30 μM PROP, transiently transfected cells",not stimulated
"NC(=S)Nc1ccccc1 [PTC, phenylthiocarbamide]",stimulation over baseline,fTAS2R38 [1]; 100 μM PTC,90%
same,activation over baseline,"fTAS2R38 [2]; 100 μM PTC, transiently transfected cells",81%
O=C1c2c(O)cccc2C([C@@H]2O[C@H](CO)[C@@H](O)[C@H](O)[C@H]2O)c2cc(CO)cc(O)c21 (stereo partly shown) [aloin],activation over baseline,"fTAS2R43; 300 μM aloin, transiently transfected cells",45%
CC[N+](CC)(CC(=O)Nc1c(C)cccc1C)Cc1ccccc1 [denatonium],activation over baseline,"fTAS2R43; 1 mM denatonium, transiently transfected cells",17%
"CCCN(CCC)S(=O)(=O)c1ccc(C(=O)O)cc1 [probenecid, p-(dipropylsulfamoyl)benzoic acid]",inhibition of the response to aloin,fTAS2R43; 1 mM probenecid,inhibited
same,inhibition of the response to denatonium,fTAS2R43; 1 mM probenecid,inhibited
same,inhibition of the response to PTC,fTAS2R38 [2]; 1 mM probenecid,inhibited
O=C1NS(=O)(=O)c2ccccc21 [saccharin],stimulation of fTAS2R43,"fTAS2R43; 6.7 mM saccharin, transiently transfected cells",not stimulated
